Measured values from patent US9573913B2, “Cathepsin cysteine protease inhibitors” (Merck Sharp & Dohme Corp., priority 2013, dated 2017).

Tests used:
human cathepsin K = human cathepsin K (UniProt P43236); test: Cathepsin K Assay (hrbCat K); format: biochemical; settings: Z-Leu-Arg-AMC substrate, pH 5.5, 15 min preincubation; read-out: hrbCat K (IP (nM))
Procedure, shortened: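 Human cathepsin K (0.4 nM) was preincubated 15 min at room temperature with compound in 50 mM MES pH 5.5, 2.5 mM EDTA, 2.5 mM DTT and 10% DMSO. Inhibition was fitted to a dose-response model.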

human cathepsin F = target: T1, human cathepsin F (Homo sapiens, UniProt Q9UBX1); test: Cathepsin F assay (hCat F); format: biochemical; settings: Z-Phe-Arg-AMC substrate, pH 5.5, 15 min preincubation; read-out: hCat F (IP (nM))
T1 sequence (Q9UBX1 271-484): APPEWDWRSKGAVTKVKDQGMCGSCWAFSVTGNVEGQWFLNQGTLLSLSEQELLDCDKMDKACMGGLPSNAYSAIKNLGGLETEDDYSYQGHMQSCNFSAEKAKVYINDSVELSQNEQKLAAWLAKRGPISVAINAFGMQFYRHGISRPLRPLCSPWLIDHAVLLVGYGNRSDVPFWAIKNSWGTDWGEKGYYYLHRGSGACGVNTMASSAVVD
Procedure, shortened: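 AMC release from Z-Phe-Arg-AMC, added at 8 μM, was monitored fluorometrically (360/460 nm) for 20 min after 10 nM enzyme and compound had been preincubated 15 min at room temperature. Buffer: MES 50 mM pH 5.5, EDTA and DTT 2.5 mM each, 10% DMSO. Compound DMSO dilutions spanned 500–0.025 μM (3-fold). Dose-response fitting gave % inhibition.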

Structure (SMILES) | IC50 (human cathepsin K) | IC50 (human cathepsin F)
CN=S1(=O)CCN(c2ccc(-c3oc(C(C)(C)C)nc3[C@@H]3CC[C@H](F)C[C@H]3C(=O)N[C@@H](C)C#N)cc2)CC1 [Example 173, (1R,2R,5S)-2-(2-(tert-butyl)-5-(4-(1-(methylimino)-1-oxidothiomorpholino)phenyl)oxazol-4-yl)-N-((S)-1-cyanoethyl)-5-fluorocyclohexane-carboxamide] | 4.7 nM | 6900 nM
N#CC1(NC(=O)[C@@H]2CC3CC3C[C@H]2c2nc(-c3ccc(F)cn3)sc2-c2ccc(N3CCS(=O)(=O)CC3)cc2)CC1 (single isomer, unassigned) [Example 100, (1S or 1R,3R,4R,6R or 6S)-N-(1-cyanocyclopropyl)-4-(5-(4-(1,1-dioxidothiomorpho-lino)phenyl)-2-(5-fluoropyridin-2-yl)thiazol-4-yl)bicyclo[4.1.0] heptane-3-carboxamide] | 1.7 nM | 632 nM
N#CC1(NC(=O)[C@@H]2CCCC[C@H]2c2nc(-c3ccc(C(F)(F)F)cn3)sc2-c2ccc(N3CCS(=O)(=O)CC3)cc2)CC1 [Example 90, (1R,2R)-N-(1-cyanocyclopropyl)-2-(5-(4-(1,1-dioxidothiomorpho-lino)phenyl)-2-(5-(trifluoromethyl)pyridin-2-yl)thiazol-4-yl)cyclohexane-carboxamide] | 2.2 nM | 1280 nM
CS(=O)(=O)c1ccc(-c2oc(-c3ccc(F)cc3)nc2C2CCC(F)(F)CC2C(=O)NCC#N)cc1 (racemic) [Example 163, (1R,2R and 1S,2S)-N-(cyanomethyl)-5,5-difluoro-2-(2-(4-fluorophenyl)-5-(4-(methylsulfonyl)phenyl)oxazol-4-yl)cyclohexane-carboxamide] | 2.9 nM | 26 nM
N#CC1(NC(=O)[C@@H]2CCCC[C@H]2c2nc(-c3ccccc3F)sc2-c2ccc(N3CCS(=O)(=O)CC3)cc2)CC1 [Example 55, (1R,2R)-N-(1-cyanocyclopropyl)-2-(5-(4-(1,1-dioxidothiomorpho-lino)phenyl)-2-(2-fluorophenyl)thiazol-4-yl)cyclohexane-carboxamide] | 2.5 nM | 1120 nM
N#CC1(NC(=O)[C@@H]2CC3CC3C[C@H]2c2nc(-c3cncc(F)c3)sc2-c2ccc(N3CCS(=O)(=O)CC3)cc2)CC1 (single isomer, unassigned) [Example 112, (1R or 1S,3R,4R,6S or 6R)-N-(1-cyanocyclopropyl)-4-(5-(4-(1,1-dioxidothiomorpho-lino)phenyl)-2-(5-fluoropyridin-3-yl)thiazol-4-yl)bicyclo[4.1.0] heptane-3-carboxamide] | 0.9 nM | 439 nM
CC1(C)CN(c2nc([C@@H]3CCCC[C@H]3C(=O)NC3(C#N)CC3)c(-c3ccc(N4CCS(=O)(=O)CC4)cc3)s2)CCO1 [Example 142, (1R,2R)-N-(1-cyanocyclopropyl)-2-(2-(2,2-dimethylmorpholino)-5-(4-(1,1-dioxidothiomorpho-lino)phenyl)thiazol-4-yl)cyclohexane-carboxamide] | 5.8 nM | 3400 nM
Cn1cccc(-c2nc([C@@H]3CCCC[C@H]3C(=O)NC3(C#N)CC3)c(-c3ccc(N4CCS(=O)(=O)CC4)cc3)s2)c1=O [Example 50, (1R,2R)-N-(1-cyanocyclopropyl)-2-(5-(4-(1,1-dioxidothiomorpho-lino)phenyl)-2-(1-methyl-2-oxo-1,2-dihydropyridin-3-yl)thiazol-4-yl)cyclohexane-carboxamide] | 1.9 nM | 879 nM
N#CC1(NC(=O)[C@@H]2CCCC[C@H]2c2nc(-c3ncc(F)cc3F)sc2-c2ccc(N3CCS(=O)(=O)CC3)cc2)CC1 [Example 65, (1R,2R)-N-(1-cyanocyclopropyl)-2-(2-(3,5-difluoropyridin-2-yl)-5-(4-(1,1-dioxidothiomorpho-lino)phenyl)thiazol-4-yl)cyclohexane-carboxamide] | 7 nM | 1000 nM
N#CC1(NC(=O)[C@@H]2CCCC[C@H]2c2nc(-c3ccc(F)cc3)sc2-c2ccc(N3CCS(=O)(=O)CC3)cc2)CC1 [Example 27, (1R,2R)-N-(1-cyanocyclopropyl)-2-(5-(4-(1,1-dioxidothiomorpho-lino)phenyl)-2-(4-fluorophenyl)thiazol-4-yl)cyclohexane-carboxamide] | 0.6 nM | 1000 nM
N#Cc1ccccc1-c1nc([C@@H]2CCCC[C@H]2C(=O)NC2(C#N)CC2)c(-c2ccc(N3CCS(=O)(=O)CC3)cc2)s1 [Example 79, (1R,2R)-N-(1-cyanocyclopropyl)-2-(2-(2-cyanophenyl)-5-(4-(1,1-dioxidothiomorpho-lino)phenyl)thiazol-4-yl)cyclohexane-carboxamide] | 9.3 nM | 5750 nM
N#CC1(NC(=O)[C@@H]2CCCC[C@H]2c2nc(NC3CCCCC3)sc2-c2ccc(N3CCS(=O)(=O)CC3)cc2)CC1 [Example 178, (1R,2R)-N-(1-cyanocyclopropyl)-2-(2-(cyclohexylamino)-5-(4-(1,1-dioxidothiomorpho-lino)phenyl)thiazol-4-yl)cyclohexane-carboxamide] | 41.2 nM | 1000 nM
CC(C)(C)c1nc([C@@H]2CCCC[C@H]2C(=O)NC2(C#N)CC2)c(-c2ccc(N3CCS(=O)(=O)CC3)cc2)o1 [Example 167, (1R,2R)-2-(2-(tert-butyl)-5-(4-(1,1-dioxidothiomorpho-lino)phenyl)oxazol-4-yl)-N-(1-cyanocyclopropyl) cyclohexanecarbox-amide] | 2.4 nM | 5120 nM
N#CC1(NC(=O)[C@@H]2CCCC[C@H]2c2nc(N3CCO[C@@H](C(F)(F)F)C3)sc2-c2ccc(N3CCS(=O)(=O)CC3)cc2)CC1 [Example 144, (1R,2R)-N-(1-cyanocyclopropyl)-2-(5-(4-(1,1-dioxidothiomorpho-lino)phenyl)-2-((R)-2-(trifluoromethyl)morpholino)thiazol-4-yl)cyclohexane-carboxamide] | 3.3 nM | 5280 nM
N#CC1(NC(=O)[C@@H]2CCCC[C@H]2c2nc(-c3cccnc3)sc2-c2ccc(N3CCS(=O)(=O)C4(CC4)C3)cc2)CC1 [Example 72, (1R,2R)-N-(1-cyanocyclopropyl)-2-(5-(4-(4,4-dioxido-4-thia-7-azaspiro[2.5]octan-7-yl)phenyl)-2-(pyridin-3-yl)thiazol-4-yl)cyclohexane-carboxamide] | 2.3 nM | 2150 nM
CC(C)[C@@H](C#N)NC(=O)[C@@H]1C[C@@H](F)CC[C@H]1c1nc(C2CC(F)(F)C2)sc1-c1ccc(N2CCS(=O)(=O)CC2)cc1 [Example 213] | 7.8 nM | ≥ 10000 nM
C[C@@H](C#N)NC(=O)[C@@H]1CCCC[C@H]1c1nc(C(C)(C)CO)sc1-c1ccc(N2CCS(=O)(=O)CC2)cc1 [Example 225, (1R,2R)-N-((S)-1-cyanoethyl)-2-(5-(4-(1,1-dioxidothiomorpho-lino)phenyl)-2-(1-hydroxy-2-methylpropan-2-yl)thiazol-4-yl)cyclohexane-carboxamide] | 1.6 nM | 1040 nM
N#CC1(NC(=O)[C@@H]2CCCC[C@H]2c2nc(-c3cccc(F)c3F)sc2-c2ccc(N3CCS(=O)(=O)CC3)cc2)CC1 [Example 62, (1R,2R)-N-(1-cyanocyclopropyl)-2-(2-(2,3-difluorophenyl)-5-(4-(1,1-dioxidothiomorpho-lino)phenyl)thiazol-4-yl)cyclohexane-carboxamide] | 2.1 nM | 1000 nM
CC(C)(C)c1ccc(-c2nc([C@@H]3CCCC[C@H]3C(=O)NC3(C#N)CC3)c(-c3ccc(N4CCS(=O)(=O)CC4)cc3)s2)cn1 [Example 92, (1R,2R)-2-(2-(6-(tert-butyl)pyridin-3-yl)-5-(4-(1,1-dioxidothiomorpho-lino)phenyl)thiazol-4-yl)-N-(1-cyanocyclopropyl) cyclohexanecarbox-amide] | 3 nM | 3330 nM
Cc1nc(C2CCCCC2C(=O)NCC#N)c(-c2ccc(N3CCS(=O)(=O)CC3)cc2)s1 (racemic) [Example 245, N-(cyanomethyl)-2-(5-(4-(1,1-dioxidothiomorpho-lino)phenyl)-2-methylthiazol-4-yl)cyclohexane-carboxamide] | 5.4 nM | 3280 nM
Cc1ccc(-c2nc([C@@H]3CC[C@H](F)C[C@H]3C(=O)NC3(C#N)CC3)c(-c3ccc(N4CCS(=O)(=O)CC4)cc3)s2)nn1 [Example 196, (1R,2R,5S)-N-(1-cyanocyclopropyl)-2-(5-(4-(1,1-dioxidothiomorpho-lino)phenyl)-2-(6-methylpyridazin-3-yl)thiazol-4-yl)-5-fluorocyclohexane-carboxamide] | 2.4 nM | 2020 nM
N#CC(CC(F)(F)F)NC(=O)[C@@H]1CCCC[C@H]1c1nc(-c2ccc(F)cn2)sc1-c1ccc(N2CCS(=O)(=O)CC2)cc1 (single isomer, unassigned) [Example 194, (1R,2R)-N-((S or R)-1-cyano-3,3,3-trifluoropropyl)-2-(5-(4-(1,1-dioxidothiomorpho-lino)phenyl)-2-(5-fluoropyridin-2-yl)thiazol-4-yl)cyclohexane-carboxamide] | 3.1 nM | 1920 nM
